From patent publication US20060160837A1, “Rapamycin compounds in the treatment of neurofibromatosis type 1” (The Brigham and Women's Hospital, Inc., priority 2004, published 2006)

Assays:
[1] = test system: tuberin phosphorylation at T-1462 and S-939; test: Tuberin phosphorylation at T-1462 and S-939, immunoblot in serum-starved Nf1-deficient cells; type: cell-based, mouse; settings: 200 nM wortmannin or U0126
[2] = test system: tuberin phosphorylation at S-1798; test: Phosphorylation of immunoprecipitated tuberin at S-1798 in serum-starved Nf1-deficient MEFs; type: cell-based, mouse
[3] = test system: S6K1 phosphorylation at T-389 (readout of mTOR activation); test: S6K1 (T-389) phosphorylation immunoblot in serum-starved Nf1-deficient MEFs; type: cell-based, mouse; settings: serum-deprived Nf1-null MEFs; pre-treatment 30 min; 20 nM rapamycin, 200 nM wortmannin, U0126
[4] = test system: S6K1 phosphorylation in NF1-/- Schwann cells; test: S6K1 phosphorylation immunoblot in neurofibroma-derived NF1-/- Schwann cells; type: cell-based; settings: NF1-/- Schwann cells from human cutaneous and plexiform neurofibromas
Protocol: Litter-mate matched MEFs or NIH3T3 cells were plated in serum-free media at a density of 1.0×10^6 cells/10-cm plate. After 18 hours, 200 nM insulin or 6 μM LPA was added. Where indicated, cells were pre-treated with DMSO, 20 nM rapamycin (Calbiochem), 200 nM Wortmannin (Sigma-Aldrich), or indicated concentrations of U0126 (Calbiochem) for 30-min. For amino acid withdrawal studies, cells were washed and media was replaced with D-PBS for the indicated times. Following stimulation, cells were lysed in 1% SDS boiling lysis buffer. Neurofibroma-derived patient matched NF1^+/− and NF1^−/− Schwann cells were isolated and cultured as previously described (Rosenbaum, et al., J. Neurosci. Res. 61:524-532 (2000); Serra, et al., Hum. Mol. Genet. 9:3055-3064 (2000)). Schwann cells were seeded at a concentration of 2.5×10^5 cells/6-cm plate in DMEM containing 0.1% serum without forskolin, insulin or heregulin and lysed as described above. […] Clarified lysates were normalized for protein levels and analyzed by Western blotting with the following antibodies: Phospho-p70S6K(T-389), Phospho-Tuberin (S-939), Phospho-Tuberin (T-1462), Phospho-Akt(S-473), Phospho-p44/42 Erk (T-202/Y-204) (Cell Signaling Technologies), Tuberin (C-20) (Santa Cruz Biotechnology), Protein Kinase Bα/AKT1, Actin, β-Tubulin (Sigma-Aldrich) and avian p90RSK1. […]

[5] = test system: MPNST cell lines from NF1 patients; test: MPNST proliferation studies (live cell count, trypan blue exclusion); type: cell-based; settings: Homo sapiens, 168 h; two MPNST cell lines from two NF1 patients; 7 days; rapamycin 0.01-100 nM

Structure (SMILES) | tuberin phosphorylation at T-1462 and S-939 [1] | tuberin phosphorylation at S-1798 (basophilic RXRXXpS/T site) [2] | aberrant activation (phosphorylation) of S6K1 [3] | S6K1 phosphorylation [4] | IC50 [5]
N#CC(=C(/N)Sc1ccccc1N)/C(C#N)=C(\N)Sc1ccccc1N [U0126] | no effect | suppressed | suppressed S6K1 phosphorylation in these cells to a similar extent | blocked | 
CO[C@H]1C[C@@H]2CC[C@@H](C)[C@@](O)(O2)C(=O)C(=O)N2CCCC[C@H]2C(=O)O[C@H]([C@H](C)C[C@@H]2CC[C@@H](O)[C@H](OC)C2)CC(=O)[C@H](C)/C=C(\C)[C@@H](O)[C@@H](OC)C(=O)[C@H](C)C[C@H](C)/C=C/C=C/C=C/1C [rapamycin] |  |  |  |  | 1 to 10 nM
